Laboratory results from US11179412B2, “Methods of treating conditions involving elevated inflammatory response” (University of Pittsburgh—Of the Commonwealth System of …, priority 2017, dated 2021).
“Also recorded” adds a separate entry of the source.

Key:
[1] = tested on: STING activation (IFNβ release) in iBMDMs; test: IFNβ release ELISA after STING ligand (or LPS) stimulation, iBMDMs; type: cell-based, mouse
Procedure, shortened: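 iBMDMs were stimulated with a STING ligand such as 3′3′-cGAMP, or with LPS. Secreted IFNβ in culture medium was measured by commercial mouse or human IFNβ ELISA.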

[2] = tested on: STING activation (IFNβ release) in pPBMCs; test: IFNβ release ELISA, primary peripheral blood mononuclear cells (pPBMCs); type: cell-based; conditions: human pPBMCs; 3′3′-cGAMP 10 μg/ml, 16 hours; compound 10 μM
Description: Macrophages or monocytes were treated with 3′3′-cGAMP (10 μg/ml, Invitrogen) for 16 hours in the absence or presence of one compound (10 μM) from the Target-selective Inhibitory Library (#L3500, Selleck Chemicals). Commercially available enzyme-linked immunosorbent assay (ELISA) kits were used to measure the concentrations of mouse IFNβ (Thermo Fisher Scientific) or human IFNβ (Thermo Fisher Scientific) in culture medium according to the manufacturer's instructions.

[3] = tested on: IFNβ mRNA in RAW264.7 cells; test: IFNβ mRNA Q-PCR, RAW264.7 cells; type: cell-based, mouse; conditions: STING ligands 10 μg/ml, inhibitor 10 μM, 16 hours
Description: (§1) Total RNA was extracted using QIAGEN RNeasy Plus Kit according to the manufacturer's instructions. First-strand cDNA was synthesized from 1 μg of RNA using the iScript cDNA Synthesis kit (#1708890, Bio-Rad). Briefly, 20 μl reactions were prepared by combining 4 μl iScript Select reaction mix, 2 μl gene-specific enhancer solution, 1 μl reverse transcriptase, 1 μl gene-specific assay pool (20×, 2 μM), and 12 μl RNA diluted in RNase-free water. Quantitative real-time PCR was carried out using synthesized cDNA, primers, and SsoFast EvaGreen Supermix (#172-5204, Bio-Rad). The expression of target genes was calculated using the ddCt method relative to the expression of a house-keeping gene, β-actin. Data shown are the relative quantity (RQ), with RQ of the control cells set to one.

IFNβ mRNA in THP1 cells = test: IFNβ mRNA Q-PCR, THP1 cells; type: cell-based, human; conditions: STING ligands 10 μg/ml, inhibitor 10 μM, 16 hours
Description: as §1

[4] = biological target: T1, interaction between ALK and EGFR (Homo sapiens, UniProt P00533+Q9UM73); test: IP analysis of the interaction between ALK and EGFR, THP1; type: cell-based; conditions: 3′3′-cGAMP or c-di-AMP 10 μg/ml, 16 hours, 10 μM
T1 construct: endogenous in cells; host or cells: THP1 cells
T1 sequence (Q9UM73 19-1620): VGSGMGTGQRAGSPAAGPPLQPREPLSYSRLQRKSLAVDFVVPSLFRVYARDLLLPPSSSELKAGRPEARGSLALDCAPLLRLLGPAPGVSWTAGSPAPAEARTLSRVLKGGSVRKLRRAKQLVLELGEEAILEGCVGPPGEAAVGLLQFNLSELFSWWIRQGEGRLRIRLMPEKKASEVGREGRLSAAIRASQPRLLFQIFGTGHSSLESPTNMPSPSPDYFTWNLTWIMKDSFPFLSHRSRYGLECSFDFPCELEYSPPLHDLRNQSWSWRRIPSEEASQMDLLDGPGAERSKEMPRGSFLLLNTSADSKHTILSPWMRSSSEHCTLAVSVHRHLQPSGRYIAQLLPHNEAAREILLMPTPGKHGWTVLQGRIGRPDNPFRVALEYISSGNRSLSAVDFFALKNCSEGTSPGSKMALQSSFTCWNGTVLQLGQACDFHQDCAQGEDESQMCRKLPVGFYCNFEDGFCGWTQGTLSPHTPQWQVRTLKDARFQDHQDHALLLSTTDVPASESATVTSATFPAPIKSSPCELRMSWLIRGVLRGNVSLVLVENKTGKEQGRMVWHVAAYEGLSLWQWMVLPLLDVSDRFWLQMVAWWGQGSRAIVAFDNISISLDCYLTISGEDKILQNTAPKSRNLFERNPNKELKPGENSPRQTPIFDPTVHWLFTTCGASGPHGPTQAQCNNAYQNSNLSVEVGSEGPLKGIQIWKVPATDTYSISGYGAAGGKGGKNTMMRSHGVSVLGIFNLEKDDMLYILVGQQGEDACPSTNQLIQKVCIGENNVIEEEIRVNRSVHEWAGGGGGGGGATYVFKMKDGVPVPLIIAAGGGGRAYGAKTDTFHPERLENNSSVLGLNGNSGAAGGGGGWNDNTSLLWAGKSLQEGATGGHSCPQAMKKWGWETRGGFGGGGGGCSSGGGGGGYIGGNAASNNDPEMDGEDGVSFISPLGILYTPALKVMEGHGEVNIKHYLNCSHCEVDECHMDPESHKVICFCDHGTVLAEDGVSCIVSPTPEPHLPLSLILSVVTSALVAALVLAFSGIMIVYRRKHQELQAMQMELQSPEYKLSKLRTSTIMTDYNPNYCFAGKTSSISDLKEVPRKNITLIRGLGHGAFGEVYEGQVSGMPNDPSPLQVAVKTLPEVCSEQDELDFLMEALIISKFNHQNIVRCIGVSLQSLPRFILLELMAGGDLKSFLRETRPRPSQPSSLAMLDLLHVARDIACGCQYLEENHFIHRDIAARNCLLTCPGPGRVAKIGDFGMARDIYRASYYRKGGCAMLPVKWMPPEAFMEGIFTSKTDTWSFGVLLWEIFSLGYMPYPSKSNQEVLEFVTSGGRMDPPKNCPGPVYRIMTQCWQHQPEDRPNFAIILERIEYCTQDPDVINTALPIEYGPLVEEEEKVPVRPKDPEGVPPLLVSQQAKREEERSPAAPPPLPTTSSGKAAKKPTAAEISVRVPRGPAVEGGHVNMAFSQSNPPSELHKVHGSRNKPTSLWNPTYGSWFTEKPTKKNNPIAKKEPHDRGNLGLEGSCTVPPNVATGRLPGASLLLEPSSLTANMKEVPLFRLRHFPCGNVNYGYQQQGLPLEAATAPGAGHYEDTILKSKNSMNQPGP
T1 sequence (P00533 25-1210): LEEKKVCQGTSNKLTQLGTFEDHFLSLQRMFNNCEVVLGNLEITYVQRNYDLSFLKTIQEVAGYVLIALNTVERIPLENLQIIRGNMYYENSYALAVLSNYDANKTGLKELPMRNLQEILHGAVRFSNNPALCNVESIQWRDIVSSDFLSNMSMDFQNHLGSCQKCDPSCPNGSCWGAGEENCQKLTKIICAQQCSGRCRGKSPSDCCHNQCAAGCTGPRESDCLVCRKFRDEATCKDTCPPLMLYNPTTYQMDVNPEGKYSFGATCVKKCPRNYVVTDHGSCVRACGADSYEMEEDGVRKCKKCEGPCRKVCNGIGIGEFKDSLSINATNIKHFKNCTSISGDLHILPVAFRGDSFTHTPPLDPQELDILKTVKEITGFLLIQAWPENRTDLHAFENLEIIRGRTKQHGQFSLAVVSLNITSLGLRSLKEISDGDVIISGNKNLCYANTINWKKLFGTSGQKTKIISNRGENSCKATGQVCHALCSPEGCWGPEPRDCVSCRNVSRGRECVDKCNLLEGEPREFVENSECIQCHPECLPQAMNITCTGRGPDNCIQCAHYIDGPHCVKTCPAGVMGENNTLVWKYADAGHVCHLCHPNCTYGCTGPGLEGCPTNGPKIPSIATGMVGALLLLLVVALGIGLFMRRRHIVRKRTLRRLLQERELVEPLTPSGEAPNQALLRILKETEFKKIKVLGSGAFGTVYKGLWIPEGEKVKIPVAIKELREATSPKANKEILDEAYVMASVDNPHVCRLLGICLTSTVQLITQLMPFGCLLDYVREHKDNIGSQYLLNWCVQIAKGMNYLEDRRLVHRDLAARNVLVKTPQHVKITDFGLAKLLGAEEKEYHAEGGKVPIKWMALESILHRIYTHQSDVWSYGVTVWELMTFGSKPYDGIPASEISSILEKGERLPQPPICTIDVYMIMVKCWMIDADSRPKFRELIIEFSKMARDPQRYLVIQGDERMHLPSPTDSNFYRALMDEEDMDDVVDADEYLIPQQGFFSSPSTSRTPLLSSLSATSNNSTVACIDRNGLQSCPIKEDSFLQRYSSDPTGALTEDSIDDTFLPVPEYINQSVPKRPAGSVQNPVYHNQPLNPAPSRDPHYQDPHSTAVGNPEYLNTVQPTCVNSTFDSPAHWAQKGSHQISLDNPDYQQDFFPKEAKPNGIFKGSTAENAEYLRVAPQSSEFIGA
Description: For immunoprecipitation, cells were lysed at 4° C. in ice-cold modified radioimmunoprecipitation lysis buffer (#9806, Cell Signaling Technology) and cell lysates were cleared by centrifugation (12,000 g, 10 min). Concentrations of proteins in the supernatant were determined by bicinchoninic acid assay. Prior to immunoprecipitation, samples containing equal amounts of proteins were pre-cleared with Protein A/G agarose/sepharose beads (#20423, Thermo Fisher Scientific Inc.) (4° C., 3 h) and subsequently incubated with various irrelevant IgG or anti-ALK (#ab190934, Abcam) or anti-EGFR antibodies (#2232S, Cell Signaling Technology) in the presence of Protein A/G agarose/sepharose beads overnight at 4° C. with gentle shaking. Following incubation, agarose/sepharose beads were washed extensively with PBS and proteins were eluted by boiling in 2× sodium dodecyl sulfate (SDS) sample buffer before SDS-PAGE electrophoresis.

RAW264.7 cells = test: Cell viability assay (CCK-8), RAW264.7; type: cell-based, mouse; conditions: 3′3′-cGAMP 10 μg/ml, ALK inhibitor 10 μM, 16 hours
Description: Cells were seeded into 96-well plates and incubated with the indicated treatments. Subsequently, 100 μl fresh medium was added to cells containing 10 μl Cell Counting Kit-8 (CCK-8) solutions (Dojindo Laboratories) and incubated for 1 h (37° C., 5% CO2). Absorbance at 450 nm was measured using a microplate reader (Tecan).

Cc1cc(Nc2ncc(Cl)c(Nc3ccccc3S(=O)(=O)C(C)C)n2)c(OC(C)C)cc1C1CCNCC1 [LDK378, 5-chloro-N^2-(2-isopropoxy-5-methyl-4-(piperidin-4-yl)phenyl)-N^4-[2-(propane-2-sulfonyl)-phenyl]-pyrimidine-2,4-diamine]
fold increase in IFN-β release [1]: 0.08 fold | 3′3′-cGAMP-induced IFNβ release ([1]; iBMDMs, 3′3′-cGAMP 10 μg/ml, 16 hours, compound 10 μM): blocked; also recorded: diminished | LPS-induced IFNβ release ([1]; iBMDMs, LPS 1 μg/ml, LDK378 10 μM, three hours): inhibited | IFNβ release induced by STING ligands ([1]; iBMDMs, STING ligands 10 μg/ml, inhibitor 10 μM, 16 hours): inhibited | 3′3′-cGAMP-induced IFNβ release [2]: confirmed their inhibitory properties | STING ligand-induced IFNβ mRNA expression [3]: attenuation | STING ligand-induced IFNβ mRNA expression (IFNβ mRNA in THP1 cells): attenuation | interaction between ALK and EGFR [4]: reduced | cell viability (RAW264.7 cells): did not affect cell viability
